According to patent publication US9205119B2, “Neuroprotective compositions and methods” (Rutgers, The State University of New Jersey, priority 2009, dated 2015):

Assays:
Format in all cases: in vivo
[1] = system: pMCAO mice (ipsilateral cortex degenerating neurons); assay: Fluoro Jade B staining to determine degenerating neurons after pMCAO; details: 30 mg/kg 2 hr before and 6 hr after pMCAO, 24 h after MCAO
Method: We used brain coronal sections […] for Fluoro Jade B staining to determine degenerating neurons, as previously described. (Rajanikant, G. K., et al., Stroke, 38:3023-31 (2007)). In brief, the brain sections on glass slides were dried overnight, immersed for 3 min in 100% ethanol, for 1 min in 70% ethanol, and for 1 min in distilled water, and then incubated in a solution containing 0.01% Fluoro-Jade B (Histo-Chem Inc., Jefferson, Ark.) and 0.1% acetic acid (1:10) for 30 min on a shaker. After three 10-min washes, the slides were coverslipped, and labeled sections were visualized with a confocal laser-scanning microscope.

[2] = system: pMCAO mice (permanent middle cerebral artery occlusion, focal cerebral ischemia); assay: TTC staining to determine infarct volume after pMCAO; details: 30 mg/kg intraperitoneally 2 hr before and 6 hr after pMCAO, measured 24 hr post-pMCAO by TTC staining
Method: Human stroke typically involves disruption of blood flow to a specific region supplied often by the middle cerebral artery (MCA). The classical animal model of focal ischemia, MCA occlusion (MCAO), produces the problem of long-term vessel blockade, simulating what often occurs in human stroke. We have induced focal cerebral ischemia in mice by cauterizing the MCA. To evaluate the acute injury induced by MCAO, animals were euthanized at 24 h after MCAO, and the infarct volume was determined using 2,3,5-triphenyltetrazolium chloride (TTC) staining. (Rajanikant, G. K., et al., Stroke, 38:3023-31 (2007)). In brief, 24 hours after pMCAO, animals were deeply anesthetized with an injection of pentobarbital (70 mg/kg, i.p.) and subjected to intracardiac perfusion with 100 mL of isotonic saline delivered through an electronic pump at 100 mm Hg. The head was then removed with a small animal guillotine and the brain carefully dissected out en bloc. After a brief (<1 minute) period of cooling on a bed of ice, the brain was sliced coronally at 1-mm intervals. […] The infarct area was then quantified from the scanned images using the NIH Image J analysis software (version 1.38). […] Vehicle or various doses (3, 30, 50 or 90 mg/kg) of KB-3 or KB-3a were administered intraperitoneally 2 hr before and 6 hr after pMCAO and the infarct volume was measured at 24 hr post-pMCAO by TTC staining. […]

pMCAO mice [3] = assay: Elevated body-swing test (EBST) after pMCAO; details: intraperitoneally 2 hr pre- and 6 hr post-pMCAO, 24 hr after ischemia, vehicle 66.4±4.9, pre-operated 50.55±1.05
Method: In addition, the elevated body-swing test (EBST), described in detail by Borlongan et al, was used by us to assess asymmetric motor behavior. (Borlongan, C. V. and Sanberg, P. R., J. Neurosci., 15:5372-8 (1995)). Mice were held by the base of the tail and elevated about 10 cm from the tabletop. The direction of body swing, defined as an upper body turn of >10° to either side, was recorded for 1 min during each of three trials. The number of left and right turns was counted, and the percentage of turns made to the side contralateral to the ipsilateral hemisphere (% right-biased swing) was determined. (Ishibashi, S., et al., Exp. Neurol., 207:302-13 (2007)). The EBST was used to detect asymmetry in motor behavior at 24 hr post-pMCAO.

pMCAO mice [4] = assay: Neurological deficit scoring (18-point scale, Garcia) after pMCAO; details: 30 mg/kg, 24 hr post-pMCAO, mean±SEM, vehicle 12.3±0.48, preoperative 17.5±0.29
Method: To determine whether KB-3a-induced reduction in infarct volume and neuronal degeneration could translate into functional recovery, neurological evaluations were performed right before the surgery and 24 hr following pMCAO. The neurobehavioral deficit scoring system consists of six tests as previously described in detail, which include: (1) spontaneous activity, (2) symmetry of four limb movement, (3) forepaw outstretching while held by tail, (4) climbing wall of wire cage, (5) reaction to touch on either side of trunk, and (6) response to vibrissae touch. (See Garcia, J. H., et al., Stroke, 26:627-34 (1995)). The neurological score given to each mouse at the completion of the evaluation is the summation of all six individual test scores. The minimum neurological score is 3 and the maximum is 18. Using the 18 point-based scale, the normal mean preoperative neurological score was 17.5±0.29.

SMILES: CC(=O)Oc1cc(C)c(OC(C)=O)c(CC=C(C)CCC=C(C)CCC=C(CCC=C(C)C)C(=O)O)c1 [KB-3a, 1,4-diacetyl-sargahydroquinoic acid]
- reduction of Fluoro-Jade B staining within the ipsilateral cortex compared to vehicle control [1]: approximately 50%
- reduction in infarct volume compared with vehicle-treated group [2]: approximately 54%
- percent right-biased swing (EBST) (pMCAO mice [3]): 52.16±1.8%
- neurological score (18 point-based scale) (pMCAO mice [4]): 17±0.41

SMILES: CC(C)=CCC/C(=C/CC/C(C)=C/CC/C(C)=C/Cc1cc(O)cc(C)c1O)C(=O)O [KB-3, sargahydroquinoic acid]
- reduction in infarct volume compared with vehicle-treated group [2]: approximately 48%
